Experimental data from publication PMC8636514, “Therapeutic potential of TRPM8 antagonists in prostate cancer” (Scientific Reports, 2021).
Where two headings read alike, the source gives them in different places.

Target: T1, human TRPM8 (Homo sapiens, UniProt Q7Z2W7)
T1 construct: expressed in transfected cells; host or cells: HEK-293/TRPM8 exon1 K3 cells
Test: Patch-clamp assay on TRPM8 channels (HEK-293/TRPM8 cells, menthol-evoked currents)
Format: cell-based
Method: Patch clamp experiments for compounds 4, 5 and 9 were done as described. HEK-293/TRPM8 exon 1 cells were seeded 3 or 4 days before experiment at a concentration of 4 and 2.5 million cells, respectively, onto a T225 flask. Before each experiment, cells were washed two times with D-PBS without Ca^2+/Mg^2+ (Euroclone, Milan, Italy) and trypsinized with trypsin−EDTA (Sigma-Aldrich; diluted 1/10). Cells were suspended in 25 mL of EX-CELL ACF CHO medium (Sigma-Aldrich, Milan, Italy), 0.625 mL of HEPES (Lonza, Walkersville, USA), 0.25 mL of 100 × penicillin/streptomycin (Lonza, Walkersville, USA), 0.1 mL of soybean trypsin inhibitor 10 mg/mL (Sigma-Aldrich), and placed on the automated patch-clamp platform (QPatch 16X, Sophion Bioscience, Ballerup, Denmark). A stock solution of L-Menthol (1 M, 100% DMSO), used as reference agonist, was freshly prepared. A diluted stock of 300 mM was prepared from the 1 M stock in 100% DMSO, and a final dilution was obtained using the extracellular solution to give a working concentration of 300 μM (1:1000, 0.1% final DMSO concentration). Stock solutions of the testing compounds (10 mM; 100% DMSO; stored at − 20 °C) were freshly prepared, as well. Further dilution of these stock solutions to a final concentration of 300 μM was performed from the 10 mM stock in 100% DMSO, and the working dilutions were performed just before the experiments using the extracellular solution containing 300 μM menthol. The highest concentration tested was 300 nM, with serial dilutions (1:10). DMSO was balanced to keep it constant throughout all the solutions in the same experiment (0.2% final DMSO concentration). Standard whole-cell voltage clamp experiments were performed at room temperature using the multihole technology. For the voltage clamp experiments on human TRPM8, data were sampled at 2 kHz. After establishment of the seal and the passage in the whole cell configuration, the cells were subjected to a voltage ramp (20 ms step at − 60 mV; 100 ms ramp − 60/ + 100 mV; 20 ms step at + 100 mV; return to − 60 mV) every 4 s. The antagonistic effect on human TRPM8 current of target compounds was evaluated after application of the agonist (menthol, 300 μM), in the absence or presence of increasing concentrations of the compound under investigation. Outward current evoked by the voltage ramp, measured in the step at + 100 mV were measured. The intracellular solution contained (mM) 135 CsCl, 10 BAPTA, 10 HEPES, 4 Na2ATP (pH 7.2 with CsOH). The extracellular solution contained (mM) 145 NaCl, 4 KCl, 1 MgCl2, 2 CaCl2, 10 HEPES, 10 glucose (pH 7.4 with NaOH). TRPM8 modulation by final compounds 3 and 6 has been previously determined by patch clamp measurements[29],[30].

T1 sequence (Q7Z2W7 whole entry): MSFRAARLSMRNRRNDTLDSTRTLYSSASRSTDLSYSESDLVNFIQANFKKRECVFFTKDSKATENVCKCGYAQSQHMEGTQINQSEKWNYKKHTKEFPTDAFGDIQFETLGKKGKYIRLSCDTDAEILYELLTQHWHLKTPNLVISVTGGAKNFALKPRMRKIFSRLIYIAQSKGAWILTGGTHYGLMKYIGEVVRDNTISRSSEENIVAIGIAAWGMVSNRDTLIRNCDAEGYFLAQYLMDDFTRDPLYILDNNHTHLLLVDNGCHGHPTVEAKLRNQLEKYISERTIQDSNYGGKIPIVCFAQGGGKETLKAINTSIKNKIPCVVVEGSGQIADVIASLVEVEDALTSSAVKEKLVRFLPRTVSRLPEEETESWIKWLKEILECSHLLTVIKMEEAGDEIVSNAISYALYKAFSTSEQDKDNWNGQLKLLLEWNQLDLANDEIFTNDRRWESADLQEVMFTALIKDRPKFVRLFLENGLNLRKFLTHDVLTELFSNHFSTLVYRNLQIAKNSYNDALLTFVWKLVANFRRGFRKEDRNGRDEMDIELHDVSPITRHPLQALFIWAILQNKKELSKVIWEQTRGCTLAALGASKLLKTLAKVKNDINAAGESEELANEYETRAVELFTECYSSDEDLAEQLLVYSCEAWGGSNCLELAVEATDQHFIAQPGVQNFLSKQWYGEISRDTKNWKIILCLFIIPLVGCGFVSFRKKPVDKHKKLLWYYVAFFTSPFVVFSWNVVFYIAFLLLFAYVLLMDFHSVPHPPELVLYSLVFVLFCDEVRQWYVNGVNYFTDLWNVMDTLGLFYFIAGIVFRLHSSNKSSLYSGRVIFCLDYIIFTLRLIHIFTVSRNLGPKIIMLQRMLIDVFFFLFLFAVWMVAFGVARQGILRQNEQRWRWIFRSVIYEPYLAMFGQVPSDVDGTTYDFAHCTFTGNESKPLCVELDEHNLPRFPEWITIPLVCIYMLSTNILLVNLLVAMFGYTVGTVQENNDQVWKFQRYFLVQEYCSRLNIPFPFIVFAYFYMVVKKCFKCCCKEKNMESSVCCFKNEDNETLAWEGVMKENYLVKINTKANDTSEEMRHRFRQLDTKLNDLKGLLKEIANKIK

Compound: c1ccc(COc2ccc3[nH]cc(CCNCc4ccc(Oc5ccccc5)cc4)c3c2)cc1 [Compound 4]
- IC50 (300 µM menthol-evoked currents, read-out: Potency IC50): 204 ± 15 nM
- IC50 (TRPM8 antagonist, menthol-evoked currents, one range for both compounds, read-out: IC50): 204 to 340 nM
- inhibitory effect on menthol-evoked TRPM8 currents (dependence on concentration): concentration-dependent
